Data from patent US7968109B2, “Liquid compositions for treating plant propagation materials” (Syngenta Crop Protection Inc., priority 2005, dated 2011).

What was measured:
[1] = Selective loading of active ingredient on cut side and skin side of tuber; format: physicochemical, potato; details: analyte fludioxonil
Source text: Generally, treatment of potato tubers and/or cut seeds with liquid pesticides results in the majority of the pesticide settling on the cut side of the seed rather than on the skin side of the seed. Such affinity for the cut side is thought to be based on the pesticides' affinity for water. […] Rather, the pesticidal action is more useful on the skin side of the tuber, where the eyes are present and where germination occurs.
Although not wanting to be bound by any particular theory, it is thought that the nonpolar nature of the waxes and silicas present in the formulations of the present invention have affinity for the skin side, causing a greater loading of the active ingredients on the skin side.

[2] = test system: Colorado Potato Beetles; assay: Control of Colorado Potato Beetles on potatoes (defoliation); format: in vivo
Method: Comparative trials were conducted to show the protection of the formulation described herein against different insect pests.

N#Cc1c[nH]cc1-c1cccc2c1OC(F)(F)O2 [Fludioxonil]
Amount of fludioxonil present on cut side of tuber ([1]; cut side): 21
Amount of fludioxonil present on skin side of tuber ([1]; skin side): 21

O=[N+]([O-])NC1=NCCN1Cc1ccc(Cl)nc1 [Imidacloprid, imidacloprid]
% Defoliation ([2]; 102 days after planting (Wash. State)): 9%
% Defoliation ([2]; 105 days after planting (Idaho)): 0%
